Experimental data from patent publication US20240270762A1, “PENICILLIN-BINDING PROTEIN INHIBITORS” (priority 2021, published 2024).
In brackets after ≈: the same amount, converted by molar mass. Read-outs that look alike come from different tables or passages of the source.

How the values were obtained:
A. baumannii CDC-0036 = experiment: microbe, parasite or virus in culture; format: cell-based; conditions: Acinetobacter baumannii, CDC0036, read-out: MIC, A. baumannii CDC-0036
P. aeruginosa ATCC 27853 = experiment: microbe, parasite or virus in culture; format: cell-based; conditions: Pseudomonas aeruginosa, ATCC27853, read-out: Minimum inhibitory concentration, P. aeruginosa ATCC 27853
[1] = test system: B. thailandensis ATCC 700388; experiment: microbe, parasite or virus in culture; format: cell-based; conditions: Burkholderia thailandensis, ATCC700388, read-out: Minimum inhibitory concentration (MIC), B. thailandensis ATCC 700388
N. gonorrhoeae WHO Q = experiment: Liquid broth MIC in Fastidious broth; conditions: Neisseria gonorrhoeae
N. gonorrhoeae CDC-0197 = experiment: Liquid broth MIC in Fastidious broth; conditions: Neisseria gonorrhoeae
[2] = test system: B. humptydooensis ATCC BAA-2767; experiment: microbe, parasite or virus in culture; format: cell-based; conditions: Burkholderia humptydooensis, ATCCBAA2767, read-out: Minimum inhibitory concentration (MIC), B. humptydooensis ATCC BAA-2767
A. baumannii 1258916 = experiment: microbe, parasite or virus in culture; format: cell-based, Acinetobacter baumannii; conditions: Acinetobacter baumannii, 1258916, read-out: MIC, A. baumannii 1258916
P. aeruginosa CDC-0110 = experiment: microbe, parasite or virus in culture; format: cell-based; conditions: Pseudomonas aeruginosa, CDC0110, read-out: Minimum inhibitory concentration, P. aeruginosa CDC-0110
[3] = test system: P. aeruginosa (ΔmexAB-oprM); experiment: Broth microdilution MIC in iron-depleted CAMHB (IDM); format: cell-based; conditions: Pseudomonas aeruginosa; iron-depleted CAMHB (IDM); […]; read-out: Minimum inhibitory concentration, P. aeruginosa ΔmexAB-oprM
P. aeruginosa ATCC 35151 = experiment: microbe, parasite or virus in culture; format: cell-based; conditions: Pseudomonas aeruginosa, ATCC35151, read-out: Minimum inhibitory concentration, P. aeruginosa ATCC 35151
A. baumannii ATCC 19606 = experiment: microbe, parasite or virus in culture; format: cell-based; conditions: Acinetobacter baumannii, ATCC19606, read-out: MIC, A. baumannii ATCC 19606
N. gonorrhoeae WHO X = experiment: Liquid broth MIC in Fastidious broth; conditions: Neisseria gonorrhoeae
A. baumannii CDC-0045 = experiment: microbe, parasite or virus in culture; format: cell-based; conditions: Acinetobacter baumannii, CDC0045, read-out: MIC, A. baumannii CDC-0045
A. baumannii ATCC 17978 = experiment: microbe, parasite or virus in culture; format: cell-based; conditions: Acinetobacter baumannii, ATCC17978, read-out: MIC, A. baumannii ATCC 17978
P. aeruginosa CDC-0090 = experiment: microbe, parasite or virus in culture; format: cell-based; conditions: Pseudomonas aeruginosa, CDC0090, read-out: Minimum inhibitory concentration, P. aeruginosa CDC-0090
[4] = read-out: Minimum Inhibitory Concentration, WHO Q
[5] = CDC0197, read-out: Minimum Inhibitory Concentration, CDC-0197
[6] = read-out: Minimum Inhibitory Concentration, WHO X
[7] = read-out: Minimum Inhibitory Concentration (MIC), N. gonorrhoeae WHO Q
[8] = CDC0197, read-out: Minimum Inhibitory Concentration (MIC), N. gonorrhoeae CDC-0197
[9] = read-out: Minimum Inhibitory Concentration (MIC), N. gonorrhoeae WHO X

Row | SMILES | MIC (A. baumannii CDC-0036) | MIC (P. aeruginosa ATCC 27853) | MIC [1] | MIC (N. gonorrhoeae WHO Q; [4]) | MIC (N. gonorrhoeae CDC-0197; [5]) | MIC [2] | MIC (A. baumannii 1258916) | MIC (P. aeruginosa CDC-0110) | MIC [3] | MIC (P. aeruginosa ATCC 35151) | MIC (A. baumannii ATCC 19606) | MIC (N. gonorrhoeae WHO X; [6]) | MIC (A. baumannii CDC-0045) | MIC (A. baumannii ATCC 17978) | MIC (P. aeruginosa CDC-0090) | MIC (N. gonorrhoeae WHO Q; [7]) | MIC (N. gonorrhoeae CDC-0197; [8]) | MIC (N. gonorrhoeae WHO X; [9])
1 | O=C(NCCCS(=O)(=O)N1CCN(C(=O)NC(C(=O)N[C@H]2Cc3ccc(F)c(C(=O)O)c3OB2O)c2cc(F)c(O)c(O)c2Cl)C1=O)Nc1ccc(O)cc1 (stereo partly drawn) [Example 276, (3R)-3-(2-(2-chloro-5-fluoro-3,4-dihydroxyphenyl)-2-(3-((3-(3-(4-hydroxyphenyl)ureido)propyl)sulfonyl)-2-oxoimidazolidine-1-carboxamido)acetamido)-7-fluoro-2-hydroxy-3,4-dihydro-2H-benzo[e][1,2]oxaborinine-8-carboxylic acid] | 2 to 4 µg/mL (≈ 2.47 to 4.93 µM) | 2 to 4 µg/mL (≈ 2.47 to 4.93 µM) | > 128 µg/mL | 16 to 32 µg/mL (≈ 19.7 to 39.5 µM) | 16 to 32 µg/mL (≈ 19.7 to 39.5 µM) | 32 to 64 µg/mL (≈ 39.5 to 78.9 µM) | < 1 µg/mL | 2 to 4 µg/mL (≈ 2.47 to 4.93 µM) | < 1 µg/mL | < 1 µg/mL | < 1 µg/mL | > 64 µg/mL | 2 to 4 µg/mL (≈ 2.47 to 4.93 µM) | < 1 µg/mL | < 1 µg/mL |  |  | 
2 | O=C(NCCS(=O)(=O)N1CCN(C(=O)NC(C(=O)N[C@H]2Cc3ccc(F)c(C(=O)O)c3OB2O)c2cc(F)c(O)c(O)c2Cl)C1=O)c1cccnc1 (stereo partly drawn) [Example 262, (3R)-3-(2-(2-chloro-5-fluoro-3,4-dihydroxyphenyl)-2-(3-((2-(nicotinamido)ethyl)sulfonyl)-2-oxoimidazolidine-1-carboxamido)acetamido)-7-fluoro-2-hydroxy-3,4-dihydro-2H-benzo[e][1,2]oxaborinine-8-carboxylic acid] | < 1 µg/mL | < 1 µg/mL | < 1 µg/mL | 16 to 32 µg/mL (≈ 20.9 to 41.7 µM) | 16 to 32 µg/mL (≈ 20.9 to 41.7 µM) | < 1 µg/mL | < 1 µg/mL | < 1 µg/mL | < 1 µg/mL | < 1 µg/mL | < 1 µg/mL | > 64 µg/mL | < 1 µg/mL | < 1 µg/mL | < 1 µg/mL |  |  | 
3 | O=C(NCCCN1CCN(C(=O)NC(C(=O)N[C@H]2Cc3ccc(F)c(C(=O)O)c3OB2O)c2cc(F)c(O)c(O)c2Cl)C(=O)C1=O)c1ccccc1 (stereo partly drawn) [Example 202, (3R)-3-(2-(4-(3-benzamidopropyl)-2,3-dioxopiperazine-1-carboxamido)-2-(2-chloro-5-fluoro-3,4-dihydroxyphenyl)acetamido)-7-fluoro-2-hydroxy-3,4-dihydro-2H-benzo[e][1,2]oxaborinine-8-carboxylic acid] | 2 to 4 µg/mL (≈ 2.69 to 5.38 µM) | 2 to 4 µg/mL (≈ 2.69 to 5.38 µM) | 8 to 16 µg/mL (≈ 10.8 to 21.5 µM) |  |  | < 1 µg/mL | < 1 µg/mL | < 1 µg/mL | < 1 µg/mL | < 1 µg/mL | < 1 µg/mL |  | < 1 µg/mL | < 1 µg/mL | 2 to 4 µg/mL (≈ 2.69 to 5.38 µM) | > 64 µg/mL | > 64 µg/mL | > 64 µg/mL
4 | O=C(NCCS(=O)(=O)N1CCN(C(=O)NC(C(=O)N[C@H]2Cc3ccc(F)c(C(=O)O)c3OB2O)c2cc(F)c(O)c(O)c2Cl)C1=O)c1ccccc1 (stereo partly drawn) [Example 260, (3R)-3-(2-(3-((2-benzamidoethyl)sulfonyl)-2-oxoimidazolidine-1-carboxamido)-2-(2-chloro-5-fluoro-3,4-dihydroxyphenyl)acetamido)-7-fluoro-2-hydroxy-3,4-dihydro-2H-benzo[e][1,2]oxaborinine-8-carboxylic acid] | 2 to 4 µg/mL (≈ 2.61 to 5.22 µM) | 2 to 4 µg/mL (≈ 2.61 to 5.22 µM) | > 128 µg/mL | 16 to 32 µg/mL (≈ 20.9 to 41.8 µM) | 16 to 32 µg/mL (≈ 20.9 to 41.8 µM) |  | < 1 µg/mL | 2 to 4 µg/mL (≈ 2.61 to 5.22 µM) | < 1 µg/mL | < 1 µg/mL | < 1 µg/mL | > 64 µg/mL | < 1 µg/mL | < 1 µg/mL | 2 to 4 µg/mL (≈ 2.61 to 5.22 µM) |  |  | 
5 | O=C(O)c1cccc2c1OB(O)[C@@H](NC(=O)[C@H](NC(=O)c1cnc3n(c1=O)CCS3)c1ccc(P(=O)(O)O)cc1)C2 (single isomer, unassigned) [Example 197] |  |  |  |  |  |  |  |  |  |  |  |  |  |  |  | 16 to 32 µg/mL (≈ 26.7 to 53.3 µM) | 16 to 32 µg/mL (≈ 26.7 to 53.3 µM) | 16 to 32 µg/mL (≈ 26.7 to 53.3 µM)
